Test [1] deals with T1, Cannabinoid Receptor 1 (CB1R) (Homo sapiens, UniProt P21554).
T1 construct: purchased Perkin-Elmer; host or cells: HEK293
Kind of test: CB1R radioligand assay on membranes from HEK293 cells over-expressing human recombinant CB1. It is filed as binding. The note with it: human recombinant CB1, [3H]CP-55,490 radioligand, n=3. On the procedure: (§1) An amino-oxo-indole-ylidene compound of formula (I) was evaluated for its ability to activate Cannabinoid Receptor 1 (CB1R) and Cannabinoid Receptor 2 (CB2R). Its C log P value were also measured.
CB1R experiments were performed using membranes from HEK293 cells over-expressing human recombinant CB1, as described by the manufacturer (Perkin-Elmer) and using [3H]CP-55,490 as the radioligand.
(§2) Data of the active compound is expressed in Ki (mM) and are means±SEM of n=3 determinations.
(§3) The value stated is an EC50 value. This is defined as the molar concentration of an agonist, which produces 50% of the maximum possible response for that agonist. The values documented are in micromolar units.

Test [2] addresses T2, Cannabinoid Receptor 2 (CB2R) (Homo sapiens, UniProt P34972).
T2 construct: purchased Perkin-Elmer; host or cells: HEK293
In words: CB2R radioligand assay on membranes from HEK293 cells over-expressing human recombinant CB2. It is filed as binding. Here is the method: as §1
CB2R experiments were performed using membranes from HEK293 cells over-expressing human recombinant CB2, as described by the manufacturer (Perkin-Elmer), and using [3H]CP-55,495 as the radioligand.
as §2, §3

T1 sequence (P21554 whole entry): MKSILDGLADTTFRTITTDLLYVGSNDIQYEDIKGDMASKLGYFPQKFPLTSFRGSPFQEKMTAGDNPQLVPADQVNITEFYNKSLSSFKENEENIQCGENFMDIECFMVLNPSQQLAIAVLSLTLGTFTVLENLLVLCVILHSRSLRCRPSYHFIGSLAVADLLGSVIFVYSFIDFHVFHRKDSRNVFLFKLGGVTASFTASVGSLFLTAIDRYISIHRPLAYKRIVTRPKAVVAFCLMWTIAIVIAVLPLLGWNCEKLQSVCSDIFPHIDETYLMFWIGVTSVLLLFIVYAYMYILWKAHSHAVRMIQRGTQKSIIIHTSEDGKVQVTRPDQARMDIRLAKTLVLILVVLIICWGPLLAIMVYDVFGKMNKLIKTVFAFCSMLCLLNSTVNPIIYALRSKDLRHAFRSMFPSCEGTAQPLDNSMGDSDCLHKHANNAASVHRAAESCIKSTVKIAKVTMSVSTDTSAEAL
T2 sequence (P34972 whole entry): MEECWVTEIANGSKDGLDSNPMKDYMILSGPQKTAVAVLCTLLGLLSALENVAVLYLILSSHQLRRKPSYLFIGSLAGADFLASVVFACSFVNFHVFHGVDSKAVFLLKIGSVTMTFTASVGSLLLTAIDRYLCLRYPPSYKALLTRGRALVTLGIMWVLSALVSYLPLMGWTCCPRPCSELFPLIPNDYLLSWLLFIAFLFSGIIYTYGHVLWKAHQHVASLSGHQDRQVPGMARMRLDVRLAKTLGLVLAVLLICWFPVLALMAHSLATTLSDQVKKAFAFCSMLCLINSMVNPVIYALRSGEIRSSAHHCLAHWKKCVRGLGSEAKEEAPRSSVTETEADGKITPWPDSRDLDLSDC

For orientation: EC50 means the concentration that produces a half-maximal response. Consider `O=C(CNc1cccc2ccccc12)N/N=C1\C(=O)N(CCc2ccccc2)c2ccccc21` [Example 1, (naphthalen-1-ylamino)-acetic acid (2-oxo-1-phenethyl-1,2-dihydro-indol-3-ylidene)-hydrazide], for which the 50% effective concentration (EC50) in test [1] is > 25 µM; in test [2], 21.1 µM.
